In US7422862B2, “Methods for identifying modulators of apoptosis” (The Burnham Institute, priority 2001, dated 2008):
d = 2'-deoxy (DNA); r = 2'-OH (RNA)

Columns and labels:
Assay type in all cases: cell-based
endogenous Humanin = assay: siRNA knock-down of endogenous Humanin in SF268 cells (immunoblotting)
Description: (§1) (A-D) CMS14.1 neuronal cells were transfected with plasmids encoding Flag-HN peptide or Flag-control (27-amino-acid) peptide, together with GFP-encoding plasmid at 4:1 ratio. Cells were either cultured without further treatment (open bars) or subjected to various apoptotic stimuli for various times (dark bars), including (A) STS for 8 h (dark symbols=Flag-control; open symbols=Flag-HN), (B) Serum-deprivation for 72 h, (C) 10 joules/m2 Uvirradiation followed by 24 h culture, and (D) 50 ng/ml TNFa in […] for 24 h. Cells were then fixed and stained with DAPI to determine the percentage of apoptotic cells, evaluating=200 GFP-positive cells per sample (mean±SD; n=3). (inset) Lysates prepared from replicate cultures of transfected cells were normalized for total protein content and analyzed by immunoblotting using anti-Flag (top) and anti-tubulin (bottom) antibodies, confirming production of similar amounts of Flag-control and Flag-HN peptides. […] (Upper panel) After 72 hr, cell lysates were prepared and 100 ug was analyzed by immunoblotting using anti-HN and anti-tubulin (as a loading control) antibodies. (Lower panel) At 72 hr after siRNA transfection, SF268 cells were cultured with 0.1 μM STS for 8 hrs, then % apoptosis was determined (mean+std dev; n=3). […] Apoptosis (%) was measured 48 hrs later among GFP-positive cells. […]

SF268 cells = assay: STS-induced apoptosis in siRNA-transfected SF268 cells; conditions: 0.1 μM STS 8 hrs
Description: as §1

endogenous Bax protein = assay: Subcellular fractionation and immunoblot of endogenous Bax after STS; conditions: SF268 cells, Humanin knocked-down by siRNA
Description: (A-B) Humanin peptide prevents STS-induced Bax translocation in vivo. Cos-7 cells were first transfected with GFP-Bax plasmids. After 24 hrs, untagged wild-type or C8P mutant Humanin peptides were introduced into cells using ChariotTM reagent, and 2 h later cells were treated with 1 μM STS. After 4 h, the percentage of cells with translocated Bax was determined (mean±SD; n=3) by confocal microscopy (A) and representative photomicrographs (B). (C) Wild-type or C8P mutant Humanin peptides were introduced into Cos7 cells using ChariotTM reagent. Cytosolic (C) and mitochondria-containing (M) fractions were isolated by differential centrifugation 23 and analyzed by immunoblotting using anti-Bax (top), Hsp60 (middle) (mitochondrial marker), or Tubulin (bottom) (cytosol marker) antibodies. (D) HN or mutant control double-strand siRNAs were transfected into SF268 cells. After 48 h, cells were cultured without (Control) or with 0.1 uM STS. After 24 hr, cells were fractionated and analyzed by immunoblotting as above. […] After 3 h at 30° C., mitochondria were centrifuged and the resulting pellets (P) and supernatants (S) were analyzed by immunoblotting using anti-Cytochrome c (top), Hsp60 (middle), and Bax (bottom) antibodies. […]
These findings were also confirmed by subcellular fractionation, where cytosol and mitochondria-enriched heavy membrane preparations were prepared from Cos7 cells transduced with untagged Humanin or Humanin(C8P) peptides, and the relative amounts of endogenous Bax protein in these two fractions were measured by immunoblot analysis of samples normalized for cell-equivalents. […] Differences in the relative potency of Humanin at blocking Bax translocation as measured by microscopy (FIG. 7A) versus cell fractionation methods (FIG. 7C) can be explained by differences in the sensitivity of the assays, or could possibly indicate that even in cells where some Bax translocation has occurred, less of the total Bax protein associated with mitochondria. […]

Humanin siRNA: double-strand siRNA, sense r(CCAGUGAAAUUGACCUGCC)d(TT), SEQ ID NO:25/26 (sense CCAGUGAAAUUGACCUGCCNN; antisense GGCAGGUCAAUUUCACUGGNN; sugars from the 5' end r19 d2, backbone and the base at N not given here)
endogenous levels of Humanin peptide (endogenous Humanin): reduced
sensitivity to STS-induced apoptosis (SF268 cells): increased
STS-induced translocation of Bax to membranes (endogenous Bax protein): enhanced
